From patent publication US20130079345A1, “[…] ACTIVE DISUBSTITUTED TRIAZINE DERIVATIVES” (BAYER INTELLECTUAL PROPERTY GMBH, priority 2010, published 2013)
Where a name gives a salt, the structure may show the parent alone.

biological target: T1, CDK8/Cyclin C (Homo sapiens, UniProt P49336); experiment: LanthaScreen Eu Kinase Binding Assay, CDK8; settings: tracer 236, read-out: Affinity (Kd) CDK8
T1 construct: purchased Invitrogen
Protocol: This protocol describes how the LanthaScreen Eu Kinase Binding Assay was performed to determine dissociation constants (Kd) of compounds of general formula (I) and CDK/Cyclin complexes. The principle behind this assay is based upon the binding and displacement of an Alexa Fluor 647-labeled tracer, which binds to the active site of kinases. Binding of the tracer to the kinase is detected using a Eu-labeled antibody. Simultaneous binding of both the tracer and antibody to the kinase gives rise to a FRET-signal. Binding of an inhibitor to the kinase competes for binding with the tracer, resulting in a loss of FRET.
The compounds of general formula (I) summarized in Table 1 were diluted from a 10 mM DMSO stock solution 1:10 in a total volume of 15 μL DMSO. This compound predilution was then serial diluted 1:3 over 8 steps in DMSO and briefly spun down. Each compound solution was now diluted 1:33.33 in kinase buffer (HEPES: 20 mM, pH: 8.0; MgCl2: 10 mM; DTT: 1 mM; Brij-35: 0.01%), mixed thoroughly and spun down. For every sample, 5 μL of the diluted compound were mixed with 5 μL tracer working solution (e.g. 60 nM tracer 236 in kinase buffer for CDK2/Cyclin A) and 5 μL CDK/Cyclin/Anti-GST-AB-working solution (e.g. 15 nM CDK2/Cyclin A, 1:250 dilution of Anti-GST-AB in kinase buffer) in a well of a small volume 384 well plate (Corning Incorporated, Corning, N.Y., USA; order no. 3673). […] For positive controls, in each well 5 μL of DMSO working solution (3% DMSO diluted in kinase buffer) was mixed with 5 μL CDK/Cyclin/Anti-GST-AB-working solution: (e.g. 15 nM CDK2/Cyclin A, 1:250 dilution of Anti-GST-AB in kinase buffer) and 5 μL Tracer working solution (e.g. 60 nM Tracer 236 in kinase buffer for CDK2/Cyclin A). Positive and negative controls were calculated from at least 8 different sample wells. The 384 well plates were mixed in a Teleshaker plate mixer (Beckman Coulter, Brea, Calif., USA) at 2000 rpm for 40 sec, and incubated for 1 h at room temperature before reading. The FRET signal was measured at 340 nm excitation, 665 nm and 615 nm emission (for the kinase tracer and LanthaScreen Eu-AB, respectively) with an Envision spectrophotometer (Perkin Elmer, Waltham, Mass., USA) with 50 μs delay and 300 μs integration time. Kd values were determined from the sigmoidal dose response curves with the software Quattro Workflow (Quattro GmbH, Munich, Germany).

T1 sequence (P49336 whole entry): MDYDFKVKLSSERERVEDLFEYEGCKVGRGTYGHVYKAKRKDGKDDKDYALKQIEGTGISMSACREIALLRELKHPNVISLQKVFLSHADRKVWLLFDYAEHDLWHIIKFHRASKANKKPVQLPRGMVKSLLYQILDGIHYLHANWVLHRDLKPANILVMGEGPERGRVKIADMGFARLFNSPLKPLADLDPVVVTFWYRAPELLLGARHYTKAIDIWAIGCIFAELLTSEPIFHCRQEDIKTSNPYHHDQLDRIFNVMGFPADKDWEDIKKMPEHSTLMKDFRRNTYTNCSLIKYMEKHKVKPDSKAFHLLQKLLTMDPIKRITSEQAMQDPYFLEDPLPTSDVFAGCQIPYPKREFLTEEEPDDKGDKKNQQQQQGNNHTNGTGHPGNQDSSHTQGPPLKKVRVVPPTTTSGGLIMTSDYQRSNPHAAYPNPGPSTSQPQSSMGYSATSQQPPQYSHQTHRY
T1 sequence (P24863 whole entry partner): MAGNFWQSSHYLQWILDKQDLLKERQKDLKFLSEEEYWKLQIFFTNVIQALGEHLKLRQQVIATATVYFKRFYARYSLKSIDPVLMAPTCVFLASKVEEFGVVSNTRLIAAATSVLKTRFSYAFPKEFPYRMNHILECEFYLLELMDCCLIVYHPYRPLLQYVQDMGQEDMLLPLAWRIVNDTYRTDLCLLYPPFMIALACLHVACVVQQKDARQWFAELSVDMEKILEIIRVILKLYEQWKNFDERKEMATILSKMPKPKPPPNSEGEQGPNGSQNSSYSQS

Row | SMILES | Kd [µM]
1 | NS(=O)(=O)Cc1cccc(Nc2ncnc(-c3ccccc3OCc3ccccc3)n2)c1 [B13′, 3-[(4-(2-Benzyloxyphenyl)-1,3,5-triazin-2-yl)amino]benzenemethanesulfonamide trifluoroacetic acid salt] | 4.86
2 | CCOc1ccccc1-c1ncnc(Nc2cccc(CS(N)(=O)=O)c2)n1 [Compound B12, 3-[(4-(2-Ethoxyphenyl)-1,3,5-triazin-2-yl)amino]benzenemethanesulfonamide] | > 10
3 | NS(=O)(=O)Cc1cccc(Nc2ncnc(-c3ccccc3Oc3ccccc3)n2)c1 [Compound B14, 1-(3-{[4-(2-phenoxyphenyl)-1,3,5-triazin-2-yl]amino}phenyl)methanesulfonamide] | 5.7
4 | NS(=O)(=O)Cc1cccc(Nc2ncnc(-c3ccccc3OCc3ccncc3)n2)c1 [Compound B16, 3-[(4-(2-((4-Pyridinyl)methoxy)phenyl)-1,3,5-triazin-2-yl)amino]benzenemethanesulfonamide] | > 10

More lines, now with the values ahead:

Row | Kd [µM] | SMILES
5 | > 10 | COc1cc(F)ccc1-c1ncnc(Nc2cccc(CS(N)(=O)=O)c2)n1 [B2″, 1-(3-{[4-(4-fluoro-2-methoxyphenyl)-1,3,5-triazin-2-yl]amino}phenyl)methanesulfonamide trifluoroacetic acid salt]
6 | > 10 | COc1cccc(F)c1-c1ncnc(Nc2cccc(CS(N)(=O)=O)c2)n1 [Compound B4, 3-[(4-(6-Fluoro-2-methoxyphenyl)-1,3,5-triazin-2-yl)amino]benzenemethanesulfonamide]
7 | 6.78 | COc1cc(Cl)ccc1-c1ncnc(Nc2cccc(CS(N)(=O)=O)c2)n1 [Compound B6, 3-[(4-(4-Chloro-2-methoxyphenyl)-1,3,5-triazin-2-yl)amino]benzenemethanesulfonamide]

biological target: T2, CDK2/CycE (Homo sapiens, UniProt P24941); experiment: CDK2/CycE kinase assay (TR-FRET); format: biochemical; settings: ATP 10 μM, values given in μM
T2 construct: GST; purchased ProQinase GmbH (Freiburg, Germany); host or cells: insect cells (Sf-9)
Excerpt: CDK2/CycE-inhibitory activity of compounds of the present invention was quantified employing the CDK2/CycE TR-FRET assay as described in the following paragraphs.
Recombinant fusion proteins of glutathione S-transferase (GST) and human CDK2 and of GST and human CycE, expressed in insect cells (Sf-9) and purified by glutathion-sepharose affinity chromatography, were purchased from ProQinase GmbH (Freiburg, Germany). A biotinylated peptide biotin-Ttds-[…] (C-terminus in amide form), which can be purchased from e.g the company JERINI Peptide Technologies (Berlin, Germany), was used as a substrate for the kinase reaction.
For the assay, 50 nl of a 100-fold concentrated solution of the test compound in DMSO was pipetted into a well of a black low-volume 384-well microtiter plate (Greiner Bio-One, Frickenhausen, Germany), 2 μl of a solution of CDK2/CycE in aqueous assay buffer [50 mM Tris/HCl pH 8.0], 10 mM MgCl2, 1.0 mM dithiothreitol, 0.1 mM sodium ortho-vanadate, 0.01% (v/v) Nonidet-P40 (Sigma)] were added. The mixture was incubated at 22° C. for 15 min to allow pre-binding of the test compounds to the enzyme before the start of the kinase reaction. […] The resulting mixture was incubated at 22° C. for 25 minutes. The concentration of CDK2/CycE was adjusted depending on the activity of the enzyme lot and was chosen appropriately for measurements in the linear range of the assay. Typical concentrations were in the range of 130 ng/ml. The reaction was stopped by the addition of 5 μl of a solution of TR-FRET detection reagents (0.2 μM streptavidine-XL and 1 nM anti-RB(pSer807/pSer811)-antibody from BD Pharmingen [#558389] and 1.2 nM LANCE EU-W1024 labeled anti-mouse IgG antibody [Perkin-Elmer, product no. AD0077]) in an aqueous EDTA-solution (100 mM EDTA, 0.2% (w/v) bovine serum albumin in 100 mM HEPES/NaOH, pH 7.0).
The resulting mixture was incubated at 22° C. for one hour to allow the formation of a complex between the phosphorylated biotinylated peptide and the detection reagents. Subsequently, the amount of phosphorylated substrate was evaluated by measuring the resonance energy transfer from the Eu-chelate to the streptavidine-XL. Therefore, the fluorescence emissions at 620 nm and 665 nm after excitation at 350 nm were measured in a high time-resolved fluorometry (HTRF) reader, e.g. a Rubystar (BMG Labtechnologies, Offenburg, Germany) or a Viewlux (Perkin-Elmer). The ratio of the emissions at 665 nm and at […] was taken as a measure for the amounts of phosphorylated substrate. The data were normalised, i.e. enzyme reaction without inhibitor corresponds to 0% inhibition, and all other assay components in the absence of the enzyme correspond to 100% inhibition. IC50 values were calculated by a 4-parameter fit using in-house software.

Row | IC50 [µM] | SMILES
8 | 1.8 | COc1ccccc1-c1ncnc(Nc2cccc(CS(N)(=O)=O)c2)n1 [Compound B1, 3-[(4-(2-Methoxyphenyl)-1,3,5-triazin-2-yl)amino]benzenemethanesulfonamide]
9 | 4 | NS(=O)(=O)Cc1cccc(Nc2ncnc(-c3ccccc3Oc3ccccc3)n2)c1 [Compound B14, 1-(3-{[4-(2-phenoxyphenyl)-1,3,5-triazin-2-yl]amino}phenyl)methanesulfonamide]
10 | 14 | N#Cc1cc(F)ccc1-c1ncnc(Nc2cccc(CS(N)(=O)=O)c2)n1 [Compound U3, 1-(3-{[4-(2-cyano-4-fluorophenyl)-1,3,5-triazin-2-yl]amino}phenyl)methanesulfonamide]
11 | 1.6 | CNS(=O)(=O)Cc1cccc(Nc2cc(-c3ccccc3OC)ncn2)c1 [Ref2, C-{3-[6-(2-Methoxy-phenyl)-pyrimidin-4-ylamino]-phenyl}-N-methyl methanesulfonamide, reference compound]
12 | 2.7 | COc1ccccc1-c1cc(Nc2cccc(CS(=O)(=O)N(C)C)c2)ncn1 [Ref4, C-{3-[6-(2-Methoxy-phenyl)-pyrimidin-4-ylamino]-phenyl}-N,N-dimethylmethanesulfonamide, reference compound]

same assay, conditions: ATP 10 μM, values in nM

Row | SMILES | IC50 [µM]
13 | NS(=O)(=O)Cc1cccc(Nc2ncnc(-c3ccccc3OCc3ccccc3)n2)c1 [Compound B13, 3-[(4-(2-Benzyloxyphenyl)-1,3,5-triazin-2-yl)amino]benzenemethanesulfonamide] | 0.38
14 | CC(C)Oc1cc(F)ccc1-c1ncnc(Nc2cccc(CS(N)(=O)=O)c2)n1 [Compound U2, 1-[3-({4-[4-fluoro-2-(propan-2-yloxy)phenyl]-1,3,5-triazin-2-yl}amino)phenyl]methanesulfonamide] | 0.88
15 | COc1cc(F)ccc1-c1ncnc(Nc2ccc(S(C)(=O)=O)nc2)n1 [Compound U8, 4-(4-fluoro-2-methoxyphenyl)-N-[6-(methylsulfonyl)pyridin-3-yl]-1,3,5-triazin-2-amine] | 0.17

Continued, values first:

Row | IC50 [µM] | SMILES
16 | 0.67 | COc1cc(F)ccc1-c1ncnc(Nc2cccc(CS(N)(=O)=O)c2)n1 [B2′, 1-(3-{[4-(4-fluoro-2-methoxyphenyl)-1,3,5-triazin-2-yl]amino}phenyl)methanesulfonamide hydrochloride]
17 | 0.93 | COc1cc(F)ccc1-c1ncnc(Nc2cccc(CS(N)(=O)=O)c2)n1 [Compound B2, 3-[(4-(4-Fluoro-2-methoxyphenyl)-1,3,5-triazin-2-yl)amino]benzenemethanesulfonamide]
18 | 0.93 | COc1cc(F)c(F)cc1-c1ncnc(Nc2cccc(CS(N)(=O)=O)c2)n1 [Compound U7, 1-(3-{[4-(4,5-difluoro-2-methoxyphenyl)-1,3,5-triazin-2-yl]amino}phenyl)methanesulfonamide]
